The values that follow come from US9296704B2, “Substituted pyrimidines as protein kinase inhibitors” (CELGENE AVILOMICS RESEARCH, INC., priority 2007, dated 2016).

pIC50: −log10 of the molar value. Where only a bound is given, the exact number is not on record here.

What all share (type): biochemical
One assay deals with BTK (Homo sapiens, UniProt Q06187). Put plainly: Omnia assay for potency against BTK. The following applies: read-out: BTK Inhibition. In short, it runs like this:
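BTK (5 nM) was pre-incubated 30 min at 27° C with serially diluted compounds in Tris pH 7.5/MgCl2 buffer, then started with […] and Y5-Sox peptide 10 mM (ATP KMapp ~36 mM). Fluorescence (ex360/em485) was read continuously over 60 min. IC50 came from initial velocities using a variable-slope fit.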

In the next assay the target is T1, ITK (Homo sapiens, UniProt Q08881).
T1 sequence (Q08881 1-620): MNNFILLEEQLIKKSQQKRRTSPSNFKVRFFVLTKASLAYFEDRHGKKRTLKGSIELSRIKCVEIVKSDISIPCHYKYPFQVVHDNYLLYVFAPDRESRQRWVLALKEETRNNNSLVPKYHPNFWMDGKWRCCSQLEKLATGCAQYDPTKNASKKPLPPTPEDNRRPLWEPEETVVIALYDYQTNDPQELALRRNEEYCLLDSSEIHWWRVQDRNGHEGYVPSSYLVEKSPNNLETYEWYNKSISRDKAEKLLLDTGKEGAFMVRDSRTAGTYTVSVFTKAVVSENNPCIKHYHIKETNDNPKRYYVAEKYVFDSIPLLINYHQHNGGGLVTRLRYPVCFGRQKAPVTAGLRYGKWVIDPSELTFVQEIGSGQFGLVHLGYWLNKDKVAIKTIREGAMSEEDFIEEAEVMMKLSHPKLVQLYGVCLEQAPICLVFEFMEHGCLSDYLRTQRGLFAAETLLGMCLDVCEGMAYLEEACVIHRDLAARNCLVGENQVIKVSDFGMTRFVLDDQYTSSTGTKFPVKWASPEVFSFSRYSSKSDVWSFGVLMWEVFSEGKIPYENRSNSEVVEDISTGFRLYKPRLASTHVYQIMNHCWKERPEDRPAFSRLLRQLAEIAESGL
Description: Omnia assay for potency against ITK. To be noted: read-out: ITK inhibition. The text has this:
The protocol below describes continuous-read kinase assays to measure inherent potency of compounds against active forms of EGFR (WT) and EGFR (T790M/L858R) enzymes. The mechanics of the assay platform are best described by the vendor (Invitrogen, Carlsbad, Calif.) on their website at the following URL: http://www.invitrogen.com/content.cfm?pageid=11338 or http://www.invitrogen.com/site/us/en/home/Products-and-Services/Applications/Drug-Discovery/Target-and-Lead-Identification-and-Validation/KinaseBiology/KB-Misc/Biochemical-Assays/Omnia-Kinase-Assays.html.
Briefly, 10× stocks of EGFR-WT (PV3872) from Invitrogen and EGFR-T790M/L858R (40350) from BPS Bioscience, San Diego, Calif., 1.13×ATP (AS001A) and appropriate Tyr-Sox conjugated peptide substrates (KCZI001) were prepared in 1× kinase reaction buffer consisting of 20 mM Tris, pH 7.5, 5 mM MgCl2, 1 mM EGTA, 5 mM β-glycerophosphate, 5% glycerol (10× stock, KB002A) and 0.2 mM DTT (DS001A). 5 μL of each enzyme were pre-incubated in a Corning (#3574) 384-well, white, non-binding surface microtiter plate (Corning, NY) for 30 min. at 27° C. with a 0.5 μL volume of 50% DMSO and serially diluted compounds prepared in 50% DMSO. Kinase reactions were started with the addition of 45 μL of the ATP/Tyr-Sox peptide substrate mix and monitored every 30-90 seconds for 60 minutes at λex360/λem485 in a Synergy^4 plate reader from BioTek (Winooski, Vt.). At the conclusion of each assay, progress curves from each well were examined for linear reaction kinetics and fit statistics (R^2, 95% confidence interval, absolute sum of squares). Initial velocity (0 minutes to ˜30 minutes) from each reaction was determined from the slope of a plot of relative fluorescence units vs time (minutes) and then plotted against inhibitor concentration to estimate IC50 from log [Inhibitor] vs Response, Variable Slope model in GraphPad Prism from GraphPad Software (San Diego, Calif.).
This example describes continuous-read kinase assays to measure inherent potency of compound against active forms of ITK enzymes as described in Example 10 above except that the modified ITK-optimized reagent conditions are: • [ITK]=10 nM, [ATP]=25 μM, [Y6-Sox]=10 μM (ATP KMapp=33 μM).

A further assay has as its target T2, BMX (Homo sapiens, UniProt P51813).
T2 sequence (P51813 1-675): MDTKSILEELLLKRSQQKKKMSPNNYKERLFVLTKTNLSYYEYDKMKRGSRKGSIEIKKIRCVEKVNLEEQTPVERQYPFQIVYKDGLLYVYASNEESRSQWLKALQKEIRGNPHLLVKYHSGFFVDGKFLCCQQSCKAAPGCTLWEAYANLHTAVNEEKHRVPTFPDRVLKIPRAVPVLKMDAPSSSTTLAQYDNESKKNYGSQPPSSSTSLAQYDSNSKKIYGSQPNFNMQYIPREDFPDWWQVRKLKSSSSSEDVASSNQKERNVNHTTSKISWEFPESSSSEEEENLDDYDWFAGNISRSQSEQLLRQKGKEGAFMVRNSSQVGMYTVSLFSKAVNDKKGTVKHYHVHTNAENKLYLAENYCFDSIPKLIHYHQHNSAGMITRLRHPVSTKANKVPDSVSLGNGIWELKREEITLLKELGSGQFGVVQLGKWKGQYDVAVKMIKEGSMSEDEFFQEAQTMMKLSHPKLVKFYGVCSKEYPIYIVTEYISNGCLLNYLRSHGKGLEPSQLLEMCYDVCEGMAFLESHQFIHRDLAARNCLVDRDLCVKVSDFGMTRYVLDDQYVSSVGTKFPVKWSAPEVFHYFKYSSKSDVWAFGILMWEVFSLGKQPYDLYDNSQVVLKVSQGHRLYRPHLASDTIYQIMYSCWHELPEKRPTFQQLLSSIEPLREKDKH
Put plainly: Omnia assay for potency against BMX. To be noted: read-out: BMX inhibition.

Chain of BTK (Q06187 whole entry): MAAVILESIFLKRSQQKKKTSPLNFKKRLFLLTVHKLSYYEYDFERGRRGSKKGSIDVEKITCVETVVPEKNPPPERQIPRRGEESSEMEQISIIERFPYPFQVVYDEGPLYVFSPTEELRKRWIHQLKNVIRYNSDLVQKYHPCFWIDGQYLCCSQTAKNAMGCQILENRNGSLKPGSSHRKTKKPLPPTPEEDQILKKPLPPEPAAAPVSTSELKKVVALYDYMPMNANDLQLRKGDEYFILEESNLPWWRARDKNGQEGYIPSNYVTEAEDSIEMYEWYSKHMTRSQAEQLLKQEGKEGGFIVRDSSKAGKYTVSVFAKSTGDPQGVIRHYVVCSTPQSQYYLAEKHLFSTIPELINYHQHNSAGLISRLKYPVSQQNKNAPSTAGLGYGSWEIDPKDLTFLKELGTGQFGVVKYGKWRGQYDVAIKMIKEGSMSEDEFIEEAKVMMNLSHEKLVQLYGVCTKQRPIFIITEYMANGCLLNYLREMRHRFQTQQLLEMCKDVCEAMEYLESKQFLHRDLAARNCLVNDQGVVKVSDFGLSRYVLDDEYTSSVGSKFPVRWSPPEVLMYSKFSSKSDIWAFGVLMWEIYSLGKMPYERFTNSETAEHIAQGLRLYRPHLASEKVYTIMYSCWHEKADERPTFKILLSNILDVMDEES

As to `C=CC(=O)Nc1cccc(Nc2cc(Nc3cccc(Br)c3)ncn2)c1` [I-1, N-{3-[6-(3-bromophenylamino)-pyrimidin-4-ylamino]-phenyl}-2-propenamide], the pIC50 at BTK was 7.00 to 8.00.

As to `C=CC(=O)Nc1cccc(Nc2cc(Nc3ccc(Oc4ccccc4)cc3)ncn2)c1` [I-13, N-{3-[6-(4-phenoxyphenylamino)-pyrimidin-4-ylamino]phenyl}-2 propenamide], the pIC50 is at least 8.00 on BTK, 5.00 to 6.00 on ITK and at least 8.00 at BMX.

As for `C=CC(=O)Nc1cccc(Nc2cc(Nc3ccc(Oc4ccccc4)cc3)ncn2)n1` [I-63], the values for the pIC50 on BTK, on ITK and at BMX were at least 8.00, 5.00 to 6.00 and at least 8.00, respectively.

As to `CN(C)C/C=C/C(=O)Nc1cccc(Nc2cc(Nc3ccc(Oc4ccccc4)cc3)ncn2)n1` [I-64, (E)-4-(dimethylamino)-N-(6-(6-(4-phenoxyphenylamino)pyrimidin-4-ylamino)pyridine-2-yl)but-2-enamide], the pIC50 is at least 8.00 at BTK, 7.00 to 8.00 at ITK and 7.00 to 8.00 at BMX.

Take `C=CC(=O)Nc1cccc(Nc2cc(Oc3cccc(C)c3)ncn2)n1` [I-65]: the pIC50 on BTK was at least 8.00; at ITK it was 7.00 to 8.00; at BMX it was at least 8.00.

In the case of `C=CC(=O)Nc1cccc(Nc2cc(Oc3ccc(Oc4ccccc4)cc3)ncn2)n1` [I-66], the pIC50 was at least 8.00 at BTK, 5.00 to 6.00 at ITK and at least 8.00 on BMX.

With `C=CC(=O)N(C)c1cccc(Nc2cc(Nc3ccc(Oc4ccccc4)cc3)ncn2)n1` [I-78, N-methyl-N-(6-(6-(4-phenoxyphenylamino)pyrimidin-4-ylamino)pyridin-2-yl)acrylamide], the pIC50 was at least 8.00 at BTK, 7.00 to 8.00 on ITK and 7.00 to 8.00 at BMX.

Regarding `CN(C)C/C=C/C(=O)N(C)c1cccc(Nc2cc(Nc3ccc(Oc4ccccc4)cc3)ncn2)n1` [I-79, (E)-4-(dimethylamino)-N-methyl-N-(6-(6-(4-phenoxyphenylamino)pyrimidin-4-ylamino)pyridine-2-yl)but-2-enamide], the pIC50 at BTK, at ITK and at BMX was at least 8.00 in each case.

Take `Cc1cccc(Oc2cc(Nc3cccc(NC(=O)/C=C/CN(C)C)n3)ncn2)c1` [I-81]: the pIC50 at BTK was at least 8.00; at ITK, 7.00 to 8.00; at BMX it was at least 8.00.

Consider `C=CC(=O)Nc1cccc(Nc2cc(Nc3ccccc3)ncn2)n1` [I-94], for which the values for the pIC50 at BTK, on ITK and at BMX were at least 8.00, 7.00 to 8.00 and at least 8.00, respectively.
